According to patent US12421216B2, “Voruciclib polymorphs and methods of making and using thereof” (MEI PHARMA, INC., priority 2019, dated 2025):
Entries after “also recorded” stand apart in the source; their conditions may differ.

How the values were obtained:
Type in all cases: physicochemical
[1] = Dynamic Vapor Sorption (DVS) hygroscopicity
Experimental: (§1) Differences in hygroscopicity (moisture uptake) of the various forms of a solid material provided a measure of their relative stability at increasing relative humidity. Moisture sorption isotherms of small samples were obtained using a DVS-1 system from Surface Measurement Systems (London, UK); this instrument is suitable for use with a few milligrams of sample, with an accuracy of 0.1 μg. The relative humidity was varied during sorption-desorption-sorption (45-95-0-45% RH) at a constant temperature of 25° C. Weight equilibration per step was set at dm/dt <0.0002 for a minimum of 1 hour or maximum of 6 hours. Afterwards the sample was measured by HT-XRPD.
The hygroscopicity was classified according to the European Pharmacopoeia Hygroscopicity classification.
as §1, with “(40-95-0-40%” for “(45-95-0-45%”
as §1, with “use with as little as a few” for “use with a few”
The hygroscopicity of Mao1 was determined by DVS. The powder was exposed to a RH profile consisting of sorption/desorption/sorption cycles (40-95-0-40% RH) performed at 25° C. The water vapor uptake gained during the sorption half-cycle was 0.75%.

[2] = Physical stability upon exposure to accelerated aging conditions (AAC, 40° C./75% RH), re-analysis by HT-XRPD
[3] = Qualitative solubility determination in water at room temperature, with observation of gel formation
Experimental: The aqueous solubility of Oxa2 (starting material) was assessed by the qualitative solubility determination approach. To 5.4 mg of Oxa2, water was added in steps of 50 μl until the material was dissolved (Exp. ID: SAS1). Visual inspection by the naked eye was used to decide whether complete dissolution occurred.
After the addition of 7.5 ml water, Oxa2 was not dissolved in water at room temperature. The suspension was heated to 50° C. upon which complete dissolution occurred, as indicated by a clear solution.
The aqueous solubility of Pho1 (Exp. ID: TCP23) was assessed by the qualitative solubility determination approach. To 5.6 mg of Pho1, water was added in steps of 50 μl until the material was dissolved (Exp. ID: SAS2). Visual inspection by the naked eye was used to decide whether complete dissolution occurred. After the addition of 700 μl water, Pho1 was not dissolved in water at room temperature whereas after a subsequent addition of 200 μl water (900 μl in total), the material completely dissolved.
The solubility of Mao1 in water was determined by adding small aliquots of water to the material until it was dissolved.

[4] = Physical stability of solid forms upon drying under vacuum, HT-XRPD
Experimental: (§2) Amorphous voruciclib oxalate salt, generated by freeze-drying, was used to start the thermocycling experiments. Suspensions were prepared in the selected solvent systems at RT. Subsequently, the mixtures were subjected to a temperature profile. After the temperature profile, the solids were separated from the solutions by centrifugation and were dried at ambient conditions and under deep vacuum before being harvested and analyzed by HT-XRPD. The liquid phases were also dried under deep vacuum before being harvested and analyzed by HT-XRPD. All solids were exposed to AAC (40° C./75% RH, 2 days).
(§3) After the temperature profile, the solids were separated from the liquids by centrifugation and the solid phase was dried at ambient conditions and under deep vacuum (5 mbar) before being harvested and analyzed by HT-XRPD. The liquid phases were dried under deep vacuum (5 mbar) and the recovered solids were analyzed by HT-XRPD. All solids were then exposed to accelerated aging conditions (40° C./75% RH, 2 days) followed by HT-XRPD re-analysis.
as §2, with “voruciclib phosphate” for “voruciclib oxalate”, “profile. Upon completion of” for “profile. After”, “dried under” for “dried at”
as §3, with “dried under” for “dried at”, “(5 mbar, 18 h)” for “(5 mbar)”
Amorphous voruciclib malonate salt, generated by freeze-drying, was used to start the thermocycling experiments. Suspensions were prepared in the selected solvent systems at RT and were subjected to three thermocycles between 50 and 5° C., followed by aging at 25° C. for 3 days. Upon completion of the aging time, the solids were separated from the liquids by centrifugation and they were dried at ambient conditions and under deep vacuum (5 mbar) before being harvested and analyzed by HT-XRPD.
After the temperature profile the solids were separated from the solution by centrifugation and they were dried at ambient conditions and under deep vacuum before being harvested and analyzed by HT-XRPD.

Water uptake ([1]; DVS, 25° C./80% RH): approximately 2.4% | Hygroscopicity classification ([1]; European Pharmacopoeia classification, water uptake at 25° C./80% RH): moderately hygroscopic | Solid form recovered after DVS analysis ([1]; XRPD after sorption-desorption-sorption cycle): Oxa2 was recovered | Solid forms Ambient AAC ([2]; oxalate salt thermocycling, ambient-dried solids after AAC (40° C./75% RH, 2 days), HT-XRPD): Oxa2 | Solid forms ML AAC ([2]; oxalate salt thermocycling, solids from evaporated mother liquor after AAC (40° C./75% RH, 2 days), HT-XRPD): Oxa2 | Solid forms Vacuum AAC ([2]; oxalate salt thermocycling, vacuum-dried solids after AAC (40° C./75% RH, 2 days), HT-XRPD): Oxa2 | Solubility in water at room temperature ([3]; qualitative determination by adding aliquots of water, visual): < 100 µg/mL | Solid forms Vacuum ([4]; oxalate salt thermocycling solids, form after drying under deep vacuum (5 mbar, 18 h), HT-XRPD, label = ambient-dried form): Oxa2
Structure (SMILES): CN1CC[C@@H](c2c(O)cc(O)c3c(=O)cc(-c4ccc(C(F)(F)F)cc4Cl)oc23)[C@@H]1CO.O=C(O)C(=O)O [Oxa2]
Physical stability upon exposure to AAC ([2]; 40° C./75% RH, 2 days, HT-XRPD before and after): stable when exposed to advanced aging conditions; also recorded: physically stable upon exposure to AAC | Solubility classification in water ([3]; USP classification, room temperature): practically insoluble (solubility <0.1 mg/mL) | Behaviour upon addition of water (gel formation) ([3]; small amount of water added to solid): No indication of gel-formation was observed | Physical stability upon drying under deep/high vacuum ([4]; oxalate, phosphate, malonate forms, 5 mbar, 18 h): stable under vacuum conditions; also recorded: physically stable
